Reference: patent US4728733A, “C-3' thiadiazinyl cephalosporin analogs” (American Home Products Corporation, priority 1985, dated 1988)
Converted amounts (≈) assume the structure as drawn. Counter-ions that a name gives are not always drawn.

Key:
Type in all cases: cell-based
[1] = system: Streptococcus faecalis ATCC 29212; test: Antibacterial activity, MIC, procedure A (broth dilution); conditions: Enterococcus faecalis, ATCC29212
Description: (§1) The compounds of the invention are tested for their antibacterial activity. The test can be carried out in two ways:
(§2) A. The organisms used in the test comprise the following: Staphylococcus aureus (penicillin-sensitive and resistant), Pseudomonas aeruginosa, Escherichia coli, […], Bordetella bronchiseptica, Proteus vulgaris, P. mirabilis, Acinetobacter calcoaceticus.
(§3) Test organisms may be added or deleted in order to reflect current clinical patterns of antibiotic susceptibility or shifts in pathogenic potential.
(§4) Stock solution of appropriate medium (e.g. Mueller-Hinton Broth) is sterilized. Starting at a predetermined concentration (e.g. 250 μg/ml), two-fold dilutions are made with the Dynatech Automatic Diluter in a Microtiter plate of 8 rows of 12 wells each in which 11 wells in each row contain 50 μl of medium (e.g. Mueller-Hinton Broth) and the 12th well contains in 100 μl an aliquot of the compound to be tested. The diluted plates are inoculated using the Dynatech Automatic Inoculator which delivers the final inoculum (e.g. 10^5 cfu/ml of a seven-hour culture which has been incubated at 35° C.).
(§5) Plates are sealed with tape and incubated (e.g. 18 hours at 35° C.).

[2] = system: Escherichia coli ATCC 25922; test: as above; conditions: ATCC25922
Description: as §1, §2, §3, §4, §5

[3] = system: Serratia marcescens ATCC 13880; test: as above; conditions: ATCC13880
Description: as §1, §2, §3, §4, §5

[4] = system: Klebsiella pneunomiae KL-1; test: as above; conditions: KL1
Description: as §1, §2, §3, §4, §5

[5] = system: Proteus vulgaris A 84354 1; test: as above; conditions: A843541
Description: as §1, §2, §3, §4, §5

[6] = system: Enterobacter cloacae ATCC 13047; test: as above; conditions: ATCC13047
Description: as §1, §2, §3, §4, §5

[7] = system: Staphylococcus aureus ATCC 29213; test: as above; conditions: ATCC29213
Description: as §1, §2, §3, §4, §5

[8] = system: Pseudomonas aeruginosa ATCC 27853; test: as above; conditions: ATCC27853
Description: as §1, §2, §3, §4, §5

[9] = system: Streptococcus faecalis ATCC 29212; test: Antibacterial activity, MIC, procedure B (agar dilution); conditions: Enterococcus faecalis, ATCC29212
Description: as §1
(§6) B. The organisms used in the test comprise the following: Staphylococcus aureus (penicillin-sensitive and resistant), Pseudomonas aeruginosa, Escherichia coli, […], Bordetella bronchiseptica, Proteus vulgaris, P. mirabilis, Acinetobacter calcoaceticus.
as §3
(§7) Organisms are normally grown for 18 hours in Brain Heart Infusion at 35° C. Cultures are adjusted with saline to MacFarland No. 1.5 standard prior to use.
(§8) Stock concentrations (e.g. 2,5000 μg or units per ml) are prepared in a suitable vehicle. Two-fold dilutions are made. One ml quantities of each dilution are incorporated in 9 ml of the appropriate agar (e.g. Seed) in sterile Petri plates. The hardened surface is inoculated with test organisms by use of a Steers replicating device. The plates are incubated (e.g. 18 hours at 35° C.) and activity is determined.

[10] = system: Escherichia coli ATCC 25922; test: as above; conditions: ATCC25922
Description: as §1, §6, §3, §7, §8

[11] = system: Serratia marcescens ATCC 13880; test: as above; conditions: ATCC13880
Description: as §1, §6, §3, §7, §8

[12] = system: Klebsiella pneunomiae KL-1; test: as above; conditions: KL1
Description: as §1, §6, §3, §7, §8

[13] = system: Proteus vulgaris A 84354 1; test: as above; conditions: A843541
Description: as §1, §6, §3, §7, §8

[14] = system: Enterobacter cloacae ATCC 13047; test: as above; conditions: ATCC13047
Description: as §1, §6, §3, §7, §8

[15] = system: Staphylococcus aureus ATCC 29213; test: as above; conditions: ATCC29213
Description: as §1, §6, §3, §7, §8

[16] = system: Pseudomonas aeruginosa ATCC 27853; test: as above; conditions: ATCC27853
Description: as §1, §6, §3, §7, §8

Compound `CO/N=C(\C(=O)N[C@@H]1C(=O)N2C(C(=O)OC(C)(C)C)=C(CN3C(=O)c4ccccc4NS3(=O)=O)CS[C@H]12)c1csc(N)n1` [Example 2 B, (6R,7R)-7-[[(Z)-(2-Amino-4-thiazolyl)(methoxyimino)acetyl]amino]-3-[(1,4-dihydro-4-oxo-3H-2,1,3-benzothiadiazin-3-yl)methyl]-8-oxo-5-thia-1-azabicyclo[4.2.0]oct-2-ene-2-carboxylic acid 1,1-dimethylethyl ester, S^3, S^3-dioxide] has an MIC [1] of 128 µg/mL (≈ 197 µM), an MIC [2] of 8 µg/mL (≈ 12.3 µM) and an MIC [3] of 64 µg/mL (≈ 98.5 µM). The MIC [4] was 4 µg/mL (≈ 6.16 µM), the MIC [5] was 1 µg/mL (≈ 1.54 µM) and the MIC [6] was 64 µg/mL (≈ 98.5 µM). It also gave an MIC [7] of 64 µg/mL (≈ 98.5 µM) and an MIC [8] of 128 µg/mL (≈ 197 µM).
Work on `CO/N=C(\C(=O)N[C@@H]1C(=O)N2C(C(=O)O)=C(CN3C(=O)C(C#N)=CNS3(=O)=O)CS[C@H]12)c1csc(N)n1` [Example 1 C, (6R,7R)-7-[[(Z)-(2-Amino-4-thiazolyl)(methoxyimino)acetyl]amino]-3-[(4-cyano-3,6-dihydro-3-oxo-2H-1,2,6-thiadiazin-2-yl)methyl]-8-oxo-5-thia-1-azabicyclo[4.2.0]oct-2-ene-2-carboxylic acid, S^3, S^3-dioxide, trifluoroacetate salt] yielded an MIC [9] of 128 µg/mL, an MIC [10] of 1 µg/mL and an MIC [11] of 8 µg/mL. It also gave an MIC [12] of 0.125 µg/mL, an MIC [13] of 1 µg/mL and an MIC [14] of 32 µg/mL. For the same compound, the MIC [15] was 32 µg/mL and the MIC [16] was 256 µg/mL.
`CO/N=C(\C(=O)N[C@@H]1C(=O)N2C(C(=O)OC(C)(C)C)=C(CN3C(=O)C(C#N)=CNS3(=O)=O)CS[C@H]12)c1csc(N)n1` [Example 1 B, (6R,7R)-7-[[(Z)-(2-Amino-4-thiazolyl)(methoxyimino)acetyl]amino]-3-[(4-cyano-3,6-dihydro-3-oxo-2H-1,2,6-thiadiazin-2-yl)methyl]-8-oxo-5-thia-1-azabicyclo[4.2.0]oct-2-ene-2-carboxylic acid 1,1-dimethylethyl ester S^3, S^3-dioxide] showed an MIC [9] of 256 µg/mL (≈ 410 µM), an MIC [10] of 2 µg/mL (≈ 3.2 µM) and an MIC [11] of 32 µg/mL (≈ 51.2 µM). For the same compound, the MIC [12] was 1 µg/mL (≈ 1.6 µM), the MIC [13] was 0.25 µg/mL (≈ 0.4 µM) and the MIC [14] was 64 µg/mL (≈ 102 µM). The MIC [15] was 64 µg/mL (≈ 102 µM) and the MIC [16] was 256 µg/mL (≈ 410 µM).
Work on `CO/N=C(\C(=O)N[C@@H]1C(=O)N2C(C(=O)O)=C(CN3C(=O)c4ccccc4NS3(=O)=O)CS[C@H]12)c1csc(N)n1` [Example 2 C, (6R,7R)-7-[[(Z)-(2-Amino-4-thiazolyl)(methoxyimino)acetyl]amino]-3-[(1,4-dihydro-4-oxo-3H-2,1,3-benzothiadiazin-3-yl)methyl]-8-oxo-5-thia-1-azabicyclo[4.2.0]oct-2-ene-2-carboxylic acid S^3, S^3-dioxide, trifluoroacetate salt] yielded an MIC [1] of 128 µg/mL, an MIC [2] of 4 µg/mL and an MIC [3] of 16 µg/mL. It also gave an MIC [4] of 2 µg/mL, an MIC [5] of 0.25 µg/mL and an MIC [6] of 64 µg/mL. For the same compound, the MIC [7] was 32 µg/mL and the MIC [8] was 128 µg/mL.
